Source: patent publication US20190211020A1 (Agency for Science, Technology and Research, priority 2012, published 2019)
Entries after “also recorded” stand apart in the source; their conditions may differ.

Assays:
[1] = tested on: BC CD34+ CML cells; conditions: background; cited from earlier work
[2] = tested on: eIF4E phosphorylation in BC GMPs; conditions: background; cited from earlier work
[3] = tested on: eIF4G levels in brain sections from Nlgn3 knock-out mice; test: Immunoblot of eIF4G in brain slices of Nlgn3 knock-out mice; parameters: species or system mouse; conditions: 40 μM CGP57380 or 50 nM ETC7168
Method: (§1) For biochemical analyses mice were sacrificed by CO2 inhalation, the cerebellum dissected and rapidly placed in a vibratome chamber and sectioned at 300 μm in cold oxygenated aCSF (in mM: 125 NaCl, 2.5 KCl, 1 MgCl2, 2 CaCl2, 1.25 NaH2PO4, 20 Glucose, 26 NaHCO3, 95% O2/5% CO2). Slices obtained were maintained at 33° C. in oxygenated aCSF and treated with 40 μM CGP57380 or 50 nM ETC7168 for 45 mins and tissues were subsequently snap frozen in liquid nitrogen. Tissues were lysed in 25 mM Tris-HCl, 150 mM NaCl, 1% Triton, 0.2% SDS, 5 mM EDTA, 2 mM DTT, 1 mM NaF, 1 mM Na3VO4 containing protease inhibitor cocktail. The soluble fractions were analyzed by immunoblotting with primary antibodies for 24 hrs at 4° C. followed by detection with secondary antibodies for enhanced chemoluminescent detection. Impact of MNK inhibitors on autism-related behavior was tested in a knock-out mouse model for autism. Nlgn3 knock-out mouse model a human mutation identified in patients with autism^73-74. Compounds were applied in DMSO using intraperitoneal injection in adult male mice (2-4 months of age). Two injections were performed, the first 30 h and a second one 5 h before testing. Behavioral testing was performed using a well-accepted test for autism that consists of quantitative analysis of ultrasonic vocalizations emitted by male mice exposed to females in estrous^75. The apparatus consisted of an arena (40 cm×20 cm) surrounded by 30-cm-high walls made of grey plastic and equipped with a microphone and a video camera. Prior to testing, the estrous cycle of each female mouse was assessed and only females in estrous were kept for testing. Male mice were acclimatized for 3 min in the chamber. Subsequently a female in estrous was introduced in the arena, and ultrasonic vocalizations were recorded for 3 min using the Avisoft system (Avisoft Bioacoustics) with a frequency bandwidth of 30 kHz to 100 kHz. The number and length of ultrasonic vocalizations were quantified. All animal experiments were approved by the cantonal veterinary office Basel-Stadt, Switzerland.

[4] = tested on: CD34+BC cells (including those carrying T315I mutation); conditions: background; cited from earlier work
[5] = tested on: TNF production by macrophage; conditions: stimulation with TLR agonists; background; cited from earlier work
[6] = tested on: normal cord blood CD34+ cells; conditions: background; cited from earlier work
[7] = tested on: normal CD34+ cells; conditions: background; cited from earlier work
[8] = tested on: active nuclear beta-catenin in BC GMPs; conditions: background; cited from earlier work
[9] = tested on: eIF4E phosphorylation in cerebellar neurons in brain sections; test: Immunoblot of phospho-eIF4E in mouse cerebellar brain slices; conditions: 40 μM CGP57380 or 50 nM ETC7168 for 45 mins
Method: as §1, with “Impact of MNK inhibitors on autism-related behavior was tested in a knock-out mouse model for autism. Nlgn3 knock-out mouse model a human mutation identified in patients with autism^73-74. Compounds were applied in DMSO using intraperitoneal injection in adult male mice (2-4 months of age). Two injections were performed, the first 30 h and a second one 5 h before testing.” left out, “The apparatus consisted of an arena (40 cm×20 cm) surrounded by 30-cm-high walls made of grey plastic and equipped with a microphone and a video camera.” left out, “Male mice were acclimatized for 3 min in the chamber.” left out, “All animal experiments were approved by the cantonal veterinary office Basel-Stadt, Switzerland.” left out

[10] = tested on: patient-derived BC cells in NSG mice; conditions: 40 mg/kg/d CGP or 5 mg/kg/d dasatinib for three weeks; read at 16 weeks; cited from earlier work

Nc1ncnc2n[nH]c(Nc3ccc(F)cc3)c12 [CGP57380]
ability of BC CD34+ CML cells to engraft NSG mice after in vitro treatment [1]: retarded their ability to engraft NSG mice | eIF4E phosphorylation in BC GMPs [2]: inhibited eIF4E phosphorylation | eIF4G levels in brain sections from Nlgn3 knock-out mice [3]: elevation in eIF4G levels; also recorded: elevated eIF4G levels | ability of CD34+ BC cells to serially replate for more than 8 weeks in methylcellulose [4]: impaired the ability | TNF production / release by macrophage [5]: inhibited; also recorded: inhibits the release of TNF alpha | ability of normal cord blood CD34+ cells to engraft NSG mice after in vitro treatment [6]: not | ability of normal CD34+ cells to serially replate [7]: not | accumulation of active nuclear beta-catenin in BC GMPs [8]: prevents accumulation of active nuclear beta-catenin | eIF4E phosphorylation in cerebellar brain sections [9]: inhibit eIF4E phosphorylation | serial transplantation of BC cells in NSG mice after in vivo treatment [10]: prevented BC cells from serially transplanting NSG mice
